We go through 1 compound from patent publication US5869081A, “Progesterone vaginal ring for treatment of infertility” (priority 1996, dated 1999).

Molecules are shown by their SMILES.

For data set [1] the following is noted: oral administration; rapid clearance by the liver; cited from earlier work.
Data set [2] has as its system rat embryos at the two cell stage. The note with it: cultured in vitro in the presence vs absence of hormone; cited from earlier work.
Data set [3] concerns endometrium. The data set can be described thus: histology / dating of endometrial biopsies (Example I). The format is in vivo, human. As to the method: Endometrial biopsies were performed with an endometrial suction curette (Z-Sampler, California) on day +3 in six patients. Three patients using the 10 mg vaginal ring had endometrial biopsies repeated on day +7. […] Steril. 1:3-25 was used for assessing the day of the menstrual cycle. Endometrial tissue was processed routinely to obtain hematoxylin and eosin stained sections. These were coded and examined by the same pathologist, who was blinded for the hormone replacement therapy of each patient.

Data set [4] deals with functionally agonadal women. Briefly: clinical pregnancy and nidation rates in an oocyte donation cycle (Example III). The format is in vivo, human. As to the method:
Seventeen functionally agonadal women used a progesterone containing vaginal ring having an in vitro release rate of 10 mg per day as the only source of progesterone during an oocyte donation cycle. When pregnancy was documented on day 12 after embryo transfer, the 10 mg ring was replaced by a vaginal ring having an in vitro release rate of 15 mg, which was left in place until the twelfth week of pregnancy. In the same period of time eighteen other women received daily i.m. injections of 100 mg progesterone. The decision to use one or the other route of administration was not randomized.

The subject of data set [5] is normogonadal women undergoing IVF-ET. The data set can be described thus: clinical pregnancy rate in IVF-ET (Example IV). The data set is classed as in vivo, human. The following applies: daily i.m. injection of 50 mg, 10/26. As to the method:
Forty-nine normogonadal women undergoing IVF-ET were randomly assigned to receive a progesterone containing vaginal ring having an in vitro release rate of 10 mg per day (n=23) or a daily intramuscular (i.m.) injection of 50 mg progesterone (n=26). In order to induce multiple follicle growth, subjects received a sequential treatment with a gonadotropin releasing hormone (GnRH) agonist, human menopausal gonadotropin (hMG) and human […] gonadotropin (hCG). Oocytes were aspirated thirty-six hours after administering hCG, and treatment with progesterone, either i.m. or by vaginal ring, began at this time. Progesterone treatment continued for a maximum of seven weeks.

The conditions of data set [6]: human, in vivo.

As for `CC(=O)[C@H]1CC[C@H]2[C@@H]3CCC4=CC(=O)CC[C@]4(C)[C@H]3CC[C@]12C` [progesterone], the “bioavailability in the circulation” value in data set [1] was “low bioavailability”. Moreover, in data set [2], the “development to the blastocyst stage” value is recorded as “better development to the blastocyst stage”. In addition, the “circulatory progesterone level with adequate biological effect on the endometrium” value in data set [3] (intravaginal delivery) is listed as 12-15 nmol/L. For the same compound, the advanced endometrial pattern result in data set [3] (women supplemented with intramuscular progesterone) is recorded as “did not exhibit this advanced pattern”. Also, the clinical pregnancy rate in data set [4] (daily i.m. injections of 100 mg, eighteen women) was 38.9%; in data set [5], 38.4%. Further, in data set [4] (i.m. progesterone 100 mg daily, 9/66), the “nidation rate (total number of gestational sacs/total number of embryos transferred)” value is recorded as 13.6%. Further, the systemic side effects result in data set [6] is recorded as “no systemic side effects”.
